Patent publication US20140350273A1, “PEDIATRIC USES OF CABAZITAXEL” (AVENTIS PHARMA S.A., priority 2012, published 2014)
Read-outs that look alike come from different tables or passages of the source.

System: human osteosarcoma DM113
Assay type: in vivo
Settings: for Tumor Volume Data (Day 28) Median / ΔT/ΔC %: day 28; for MTTE / T-C: volume endpoint 1600 mm^3
Protocol: The resultant solution contains 10 mg/mL of cabazitaxel. Stock solution of cabazitaxel was then diluted in 0.9% sodium chloride.
This efficacy may be quantified, for example, as changes in tumor volume for each treated (T) and control (C) group, which are calculated for each animal and each day by subtracting the tumor volume on the day of first treatment (staging day) from the tumor volume on the specified observation day. This allows calculating the tumor growth inhibition: ΔT/ΔC=(median delta T/median delta C)×100. Individual tumor volume changes from baseline are thereafter analyzed by a non-parametric two-way ANOVA-TYPE (with factors: group and repeated days) followed by a post-hoc contrasts analysis, with Bonferroni-Holm adjustment for multiplicity, comparing all treated groups to the control group. […] A probability less than 5% (p<0.05) was considered as significant.
Based on the National Cancer Institute (NCl) standards, a ΔT/ΔC≦40% is the minimal level required to declare activity.
This efficacy may also be quantified by the number of tumor regressions observed after therapy. Individual mice reporting a tumor volume ≦50% of the Day 0 measurement for two consecutive measurements over a seven day period were considered partial responders (PR). Individual mice lacking palpable tumors (<4×4 mm^2 for two consecutive measurements over a seven day period) were classified as complete responders (CR); a CR that persisted until study completion was considered a tumor-free survivor (TFS).
Efficacy could also be determined at study completion, using tumor growth delay (T-C) in days, which is calculated using the median time to endpoint (MTTE) value for each treatment (T) group versus control (C). A Log Rank multiple comparison test with Bonferroni-Holm adjustment for multiplicity was applied on individual TTE to compare the treated groups to the control group.
The animals subjected to the experiment are subcutaneously grafted unilaterally with approximately 30 mg of a tumor fragment from low passage pediatric patient-derived tumor xenografts. The animals are implanted with a human patient-derived pediatric tumor xenografted in immuno-compromised mice (Harlan; nu/nu). Several days post tumor implantation, mice are randomized according to their tumor burden to the different groups of treatments and controls. The agents are dosed intravenously at 5.8, 9.3, 15 or 24.2 mg/kg every 4 days for a total of 3 doses (q4d×3) to mice bearing a tumor burden at start of therapy (day 0) ranged from 125 to 250 mm^3.
Beginning Day 0, animals were observed daily and weighed twice weekly using a digital scale; data including individual and mean gram weights (Mean We±SD), mean percent weight change versus Day 0 were recorded for each group. Animal deaths were recorded daily and designated as drug-related (D), technical (T), tumor related (B), or unknown (U) based on weight loss and gross observation; single agent or combination groups reporting a mean >20% for a period of 7 days and/or >10% mortality were considered above the maximum tolerated dose (MTD) for that treatment on the evaluated regimen.
The selected tumor model, DM113, was a low passage patient-derived tumor xenograft derived from an osteosarcoma taken from the lung of a patient.
The following end points were used: • Toxicity was declared at dosages inducing ≧20% body weight loss or ≧10% drug death; • Antitumor efficacy was determined by calculating the ΔT/ΔC value in percent on day 28 post treatment initiation, according to the above mentioned formula; • Individual tumor volume changes from baseline were analyzed by a non-parametric two-way ANOVA-TYPE (with factors: group and repeated day from 3 to 28) followed by a post-hoc contrasts analysis, with Bonferroni-Holm adjustment for multiplicity, comparing all treated groups to the control group on day 28. […] The volume endpoint for T-C calculations was chosen to be 1600 mm^3.

CO[C@H]1C(=O)[C@]2(C)[C@@H](OC)C[C@H]3OC[C@@]3(OC(C)=O)[C@H]2[C@H](OC(=O)c2ccccc2)[C@]2(O)C[C@H](OC(=O)[C@H](O)[C@@H](NC(=O)OC(C)(C)C)c3ccccc3)C(C)=C1C2(C)C [Cabazitaxel, 4α-acetoxy-2α-benzoyloxy-5β,20-epoxy-1β-hydroxy-7β,10β-dimethoxy-9-oxo-11-taxen-13α-yl (2R,3S)-3-tert-butoxycarbonyl-amino-2-hydroxy-3-phenylpropionate]
#CR (5.8 mg/kg i.v./q4dx3): 0/0/0
#PR (5.8 mg/kg i.v./q4dx3): 0/0/0
#TFS (5.8 mg/kg i.v./q4dx3): 0/0/0
Drug Deaths Total (5.8 mg/kg i.v./q4dx3): 0
Tumor Volume Data (Day 28) Median (5.8 mg/kg i.v./q4dx3): 512.5 mm^3
ΔT/ΔC % (5.8 mg/kg i.v./q4dx3): 29.4%
MTTE (5.8 mg/kg i.v./q4dx3): 47 days
T-C (5.8 mg/kg i.v./q4dx3): 16 days
tumor volume changes from baseline, Median +/− MAD (5.8 mg/kg, DAY 3): 58 +/− 21.5
tumor volume changes from baseline, Median +/− MAD (5.8 mg/kg, DAY 8): 63.5 +/− 37
tumor volume changes from baseline, Median +/− MAD (5.8 mg/kg, DAY 11): 63.5 +/− 21.5
tumor volume changes from baseline, Median +/− MAD (5.8 mg/kg, DAY 14): 95 +/− 41.5
tumor volume changes from baseline, Median +/− MAD (5.8 mg/kg, DAY 17): 95 +/− 59
tumor volume changes from baseline, Median +/− MAD (5.8 mg/kg, DAY 21): 158.5 +/− 39.5
tumor volume changes from baseline, Median +/− MAD (5.8 mg/kg, DAY 24): 234 +/− 83.5
tumor volume changes from baseline, Median +/− MAD (5.8 mg/kg, DAY 28): 334.5 +/− 96
tumor volume changes from baseline, Median +/− MAD (5.8 mg/kg, DAY 31): 459.5 +/− 123
tumor volume changes from baseline, Median +/− MAD (5.8 mg/kg, DAY 35): 579.5 +/− 228
tumor volume changes from baseline, Median +/− MAD (5.8 mg/kg, DAY 38): 834.5 +/− 245
tumor volume changes from baseline, Median +/− MAD (5.8 mg/kg, DAY 42): 1097 +/− 248
tumor volume changes from baseline, Median +/− MAD (5.8 mg/kg, DAY 46): 1548.5 +/− 438.5
#CR (9.3 mg/kg i.v./q4dx3): 0/0/0
#PR (9.3 mg/kg i.v./q4dx3): 0/0/0
#TFS (9.3 mg/kg i.v./q4dx3): 0/0/0
Drug Deaths Total (9.3 mg/kg i.v./q4dx3): 0
Weight Nadir % (9.3 mg/kg i.v./q4dx3): −3%
Weight Nadir Day (9.3 mg/kg i.v./q4dx3): 3
Tumor Volume Data (Day 28) Median (9.3 mg/kg i.v./q4dx3): 204 mm^3
ΔT/ΔC % (9.3 mg/kg i.v./q4dx3): 1.8%
MTTE (9.3 mg/kg i.v./q4dx3): >59 days
T-C (9.3 mg/kg i.v./q4dx3): >28 days
tumor volume changes from baseline, Median +/− MAD (9.3 mg/kg, DAY 3): 29.5 +/− 27
tumor volume changes from baseline, Median +/− MAD (9.3 mg/kg, DAY 8): 29.5 +/− 29.5
tumor volume changes from baseline, Median +/− MAD (9.3 mg/kg, DAY 11): 29.5 +/− 29.5
tumor volume changes from baseline, Median +/− MAD (9.3 mg/kg, DAY 14): 9 +/− 9
tumor volume changes from baseline, Median +/− MAD (9.3 mg/kg, DAY 17): 0 +/− 0
tumor volume changes from baseline, Median +/− MAD (9.3 mg/kg, DAY 21): 0 +/− 9
tumor volume changes from baseline, Median +/− MAD (9.3 mg/kg, DAY 24): 0 +/− 31
tumor volume changes from baseline, Median +/− MAD (9.3 mg/kg, DAY 28): 20 +/− 39.5
tumor volume changes from baseline, Median +/− MAD (9.3 mg/kg, DAY 31): 69 +/− 69
tumor volume changes from baseline, Median +/− MAD (9.3 mg/kg, DAY 35): 87.5 +/− 70.5
tumor volume changes from baseline, Median +/− MAD (9.3 mg/kg, DAY 38): 182 +/− 155.5
tumor volume changes from baseline, Median +/− MAD (9.3 mg/kg, DAY 42): 311 +/− 248
tumor volume changes from baseline, Median +/− MAD (9.3 mg/kg, DAY 46): 576 +/− 317.5
#CR (15 mg/kg i.v./q4dx3): 0
#PR (15 mg/kg i.v./q4dx3): 4
#TFS (15 mg/kg i.v./q4dx3): 0
Drug Deaths Total (15 mg/kg i.v./q4dx3): 0
Weight Nadir % (15 mg/kg i.v./q4dx3): −9%
Weight Nadir Day (15 mg/kg i.v./q4dx3): 14
Tumor Volume Data (Day 28) Median (15 mg/kg i.v./q4dx3): 131 mm^3
ΔT/ΔC % (15 mg/kg i.v./q4dx3): −4.4%
MTTE (15 mg/kg i.v./q4dx3): >59 days
T-C (15 mg/kg i.v./q4dx3): >28 days
numbers of PR (15 mg/kg q4d×3 IV): 4/10
tumor volume changes from baseline, Median +/− MAD (15 mg/kg, DAY 3): 13 +/− 13
tumor volume changes from baseline, Median +/− MAD (15 mg/kg, DAY 8): 0 +/− 0
tumor volume changes from baseline, Median +/− MAD (15 mg/kg, DAY 11): −23.5 +/− 23.5
tumor volume changes from baseline, Median +/− MAD (15 mg/kg, DAY 14): −40.5 +/− 30
tumor volume changes from baseline, Median +/− MAD (15 mg/kg, DAY 17): −40.5 +/− 30
tumor volume changes from baseline, Median +/− MAD (15 mg/kg, DAY 21): −40.5 +/− 30
tumor volume changes from baseline, Median +/− MAD (15 mg/kg, DAY 24): −50 +/− 36.5
tumor volume changes from baseline, Median +/− MAD (15 mg/kg, DAY 28): −50 +/− 36.5
tumor volume changes from baseline, Median +/− MAD (15 mg/kg, DAY 31): −53 +/− 36.5
tumor volume changes from baseline, Median +/− MAD (15 mg/kg, DAY 35): −59.5 +/− 29
tumor volume changes from baseline, Median +/− MAD (15 mg/kg, DAY 38): −59.5 +/− 39.5
tumor volume changes from baseline, Median +/− MAD (15 mg/kg, DAY 42): −59.5 +/− 39.5
tumor volume changes from baseline, Median +/− MAD (15 mg/kg, DAY 46): −59.5 +/− 42.5
#CR (24.2 mg/kg i.v./q4dx3): 0
#PR (24.2 mg/kg i.v./q4dx3): 5
#TFS (24.2 mg/kg i.v./q4dx3): 0
Drug Deaths Total (24.2 mg/kg i.v./q4dx3): 0
Weight Nadir % (24.2 mg/kg i.v./q4dx3): −11%
Weight Nadir Day (24.2 mg/kg i.v./q4dx3): 11
Tumor Volume Data (Day 28) Median (24.2 mg/kg i.v./q4dx3): 112 mm^3
ΔT/ΔC % (24.2 mg/kg i.v./q4dx3): −3.6%
MTTE (24.2 mg/kg i.v./q4dx3): >59 days
T-C (24.2 mg/kg i.v./q4dx3): >28 days
numbers of PR (24.2 mg/kg q4d×3 IV): 5/10
tumor volume changes from baseline, Median +/− MAD (24.2 mg/kg, DAY 3): 9.5 +/− 9.5
tumor volume changes from baseline, Median +/− MAD (24.2 mg/kg, DAY 8): 0 +/− 26.5
tumor volume changes from baseline, Median +/− MAD (24.2 mg/kg, DAY 11): −40.5 +/− 34
tumor volume changes from baseline, Median +/− MAD (24.2 mg/kg, DAY 14): −43.5 +/− 28.5
tumor volume changes from baseline, Median +/− MAD (24.2 mg/kg, DAY 17): −40.5 +/− 24.5
tumor volume changes from baseline, Median +/− MAD (24.2 mg/kg, DAY 21): −40.5 +/− 24.5
tumor volume changes from baseline, Median +/− MAD (24.2 mg/kg, DAY 24): −40.5 +/− 40.5
tumor volume changes from baseline, Median +/− MAD (24.2 mg/kg, DAY 28): −40.5 +/− 40.5
tumor volume changes from baseline, Median +/− MAD (24.2 mg/kg, DAY 31): −40.5 +/− 34
tumor volume changes from baseline, Median +/− MAD (24.2 mg/kg, DAY 35): −51 +/− 41.5
tumor volume changes from baseline, Median +/− MAD (24.2 mg/kg, DAY 38): −51 +/− 41.5
tumor volume changes from baseline, Median +/− MAD (24.2 mg/kg, DAY 42): −51 +/− 41.5
tumor volume changes from baseline, Median +/− MAD (24.2 mg/kg, DAY 46): −51 +/− 41.5
antitumor activity compared with docetaxel (conclusion of example 5, 9.3, 15 and 24.2 mg/kg dose levels): higher efficacy than docetaxel
